Legend:
[1] = 100 kPa, Liquid; for electrical conductivity: Alternating current cell with electrodes; for viscosity: Capillary tube (Ostwald / Ubbelohde) method; for mass density: Vibrating tube method
[2] = xn = mol fraction of the nth substance listed; conditions: 100 kPa, Liquid, x2 = 0; for viscosity: Capillary tube (Ostwald / Ubbelohde) method; for mass density: Vibrating tube method

Cn1cc[n+](C)c1.O=S(=O)([N-]S(=O)(=O)C(F)(F)F)C(F)(F)F [1,3-dimethylimidazolium bis((trifluoromethyl)sulfonyl)amide]
[1]
Conditions	electrical conductivity [S/m]	mass density [kg/m3]	viscosity [mPa·s]
298.15 K	0.774	1575.42	39.43
303.15 K	0.915	1570.25	32.51
308.15 K	1.06	1565.01	27.47
313.15 K	1.2	1559.73	23.43
318.15 K	1.35	1554.49	20.25
323.15 K	1.51	1549.34	17.72

O=C1CCCO1 [γ-butyrolactone] + Cn1cc[n+](C)c1.O=S(=O)([N-]S(=O)(=O)C(F)(F)F)C(F)(F)F
[2]
Conditions	mass density [kg/m3]	viscosity [mPa·s]
298.15 K	1124.59	1.71
303.15 K	1119.68	1.58
308.15 K	1114.78	1.47
313.15 K	1109.87	1.37
318.15 K	1104.96	1.28
323.15 K	1100.05	1.2

— the NIST ThermoML archive (doi:10.1016/j.jct.2017.10.004)
